Consider 7 compounds from patent US20240374566A1, “METHODS AND COMPOSITIONS FOR THE TREATMENT OF CANCER” (Lankenau Institute for Medical Resesarch, priority 2017, published 2024).

Entries after “also recorded” stand apart in the source; their conditions may differ.

One data set relates to 4T1 lung metastases. Description: Hypoxyprobe staining of hypoxic regions within 4T1 lung metastases. The format is in vivo, mouse. The conditions noted are these: epacadostat 50 mg/kg oral gavage b.i.d. over 72 hours. The protocol:
For IDO1 inhibitor treatment studies looking at tumor hypoxia, mice bearing established metastases at 3.5 weeks following 4T1 engraftment were administered either 50 mg/kg epacadostat (ChemieTek; Indianapolis, IN) in 100 μl vehicle (3% N,N-dimethylacetamide, 10% 2-hydroxylpropyl-β-cyclodextrin) by oral gavage b.i.d. (twice daily) over 72 hours, or 400 mg/kg indoximod (Sigma-Aldrich; St. Louis, MO) in 100 μl vehicle (0.5% Tween 80/0.5% Methylcellulose v/v in water) by oral gavage b.i.d. (twice daily) over 72 hours.
For visualizing regions of hypoxia within 4T1 lung metastases, the Hypoxyprobe™ Green Kit (Hydroxyprobe, Inc.; Burlington, MA) was used as per the manufacturer's instructions. 1 hour prior to euthanasia, mice were injected intravenously with 60 mg/kg Hypoxyprobe™ (pimonidazole HCl). Lung sections were stained with the FITC-conjugated mouse IgG1 monoclonal antibody (4.3.11.3) provided by the supplier that specifically binds to protein adducts of pimonidazole.

Another data set deals with 4T1 pulmonary metastases. Description: Neovascular density (anti-Cav1 staining) within 4T1 lung metastases after treatment. The format is in vivo, mouse. The protocol:
Pulmonary metastasis studies with the 4T1 mouse mammary carcinoma-derived cell line (Aslakson et al. (1992) Cancer Res., 52:1399-1405) were carried out by injecting 1×10^4 cells in 50 μl serum free medium into the number 4 mammary fatpad to establish an orthotopic tumor which then spontaneously metastasized to the lungs. For visualization of the pulmonary metastasis burden, lungs were inflated with 15% India ink dye, washed, and bleached in Fekete's solution. For immunofluorescence detection of pulmonary metastasis vasculature, lungs were inflated with 50% OCT and frozen in OCT blocks followed by 4 μm sectioning using the CryoJane tape transfer system. Blood vessels within the metastatic nodules were visualized by fluorescence staining with rabbit anti-mouse Caveolin1 polyclonal antibody (Cat. #3238S, Cell Signaling Technology, Boston, MA). For quantitatively evaluating vessel density within the metastatic nodules, multiple fields were acquired per mouse lung on a Zeiss inverted microscope with 40× objective. The pixel density corresponding to the positive Cav1 signal per field was determined in Adobe Photoshop, and these values were then averaged to determine the overall mean value per mouse. For IDO1 inhibitor treatment studies, mice bearing established metastases at 3.5 weeks following 4T1 engraftment were administered 50 mg/kg epacadostat (ChemieTek; Indianapolis, IN) in 100 μl vehicle (3% N,N-dimethylacetamide, 10% 2-hydroxylpropyl-β-cyclodextrin) by oral gavage b.i.d. (twice daily) over 72 hours at which point the animals were euthanized for analysis. Positive control animals were administered a single intraperitoneal (i.p.) injection of 50 mg/kg cyclophosphamide (Baxter; Deefield, IL) in 100 μl sterile saline and euthanized 72 hours later for analysis. […]

For data set [1], the system named is lymphoma, lung cancer and sarcoma. The conditions noted are these: cited from earlier work.
Data set [2] deals with large, vascularized tumors. The following applies: requires IFNγ receptor expression on normal host cells; cited from earlier work.
Data set [3] concerns allogeneic mouse concepti. The following applies: in vivo; cited from earlier work.
For another data set, the system named is tumors. The following applies: clinical study; cited from earlier work.
The conditions of data set [4]: mouse, rat and dog; cited from earlier work.
Another data set concerns human xenograft tumor. The following applies: mice; cited from earlier work.

With `NS(=O)(=O)NCCNc1nonc1C(=NO)Nc1ccc(F)c(Br)c1` [epacadostat], the “hypoxia in metastatic tumor (Hypoxyprobe staining) relative to vehicle” value with 4T1 lung metastases is on record as “clear evidence of elevated hypoxia”. For the same compound, the “reduction in metastatic tumor neovascularization relative to vehicle alone” value in the data set on 4T1 pulmonary metastases (50 mg/kg oral gavage b.i.d. over 72 hours, established 4T1 pulmonary metastases 3.5 weeks after engraftment, P<0.01) came to 3.2 fold. Further, in the data set with 4T1 pulmonary metastases (epacadostat 50 mg/kg oral gavage b.i.d. over 72 hours, established 4T1 pulmonary metastases), the “metastatic tumor neovascularization relative to vehicle (in words)” value is reported as “reduced level of neovascularization; also recorded: clear reduction in metastatic tumor neovascularization”.
Turning to `C=CC1=C(C)c2cc3[n-]c(cc4[n-]c(cc5nc(cc1n2)C(C)=C5C=C)c(C)c4CCC(=O)O)c(CCC(=O)O)c3C.[Zn+2]` [ZnPPIX, zinc protoporphyrin IX], in data set [1], the “antitumor effect in mice” value was “effective in reducing lymphoma, lung cancer and sarcoma”.
As for `O=P1(N(CCCl)CCCl)NCCCO1` (centres unmarked) [cyclophosphamide], the “metastatic tumor neovascularization, positive control (in words)” value in the data set on 4T1 pulmonary metastases (single i.p. injection of 50 mg/kg, evaluated 72 hours later, compared with the effect of epacadostat) was “comparable”. Besides, the tumor rejection result in data set [2] is reported as “immune-dependent rejection of large, vascularized tumors”.
`Cn1cc(C[C@H](N)C(=O)O)c2ccccc21` [1MT, 1-methyl-tryptophan]: the “rejection of allogeneic mouse concepti” value in data set [3] is “could elicit T cell-dependent rejection of allogeneic mouse concepti”.
Consider `Cn1cc(C[C@@H](N)C(=O)O)c2ccccc21` [indoximod, 1-methyl-D-tryptophan], for which the “sensitization of tumors to salvage chemotherapy” value with tumors was “appeared to sensitize tumors to salvage chemotherapy”.
As for `Cc1cccc(CC(=O)N2CCc3c2ccc(-c2cn(C)c4ncnc(N)c24)c3F)n1` [GSK2656157], in data set [4], the blood clearance result is listed as “low to moderate” and the oral bioavailability result is given as “good”. Further, in the data set on human xenograft tumor, the “human xenograft tumor growth” value is reported as “delay of various human xenograft tumor growths”; the “weight loss and effect on pancreatic insulin production” value is reported as “without significant weight loss and/or effect on pancreatic insulin production”.
`Cn1cc(-c2ccc3c(c2)CCN3C(=O)Cc2cccc(C(F)(F)F)c2)c2c(N)ncnc21` [GSK2606414]: in data set [4], the blood clearance entry is “low to moderate” and the oral bioavailability entry is listed as “good”.
